{
  "source": "patent US20240408175A1",
  "about": "“BMP9 OR AN AGONIST THEREOF AND ITS USES RELATED TO REDUCING METASTASIS OF CANCER” (THE UAB RESEARCH FOUNDATION, priority 2021, published 2024)",
  "key": {"[1]": {"test_system": "PA1 cells", "assay": "Sulforhodamine B (SRB) growth assay, attached 2D", "format": "cell-based, human", "settings": "10 nM, 3 days"}, "[2]": {"test_system": "SKOV3-luc-GFP cells", "assay": "SKOV3-luc-GFP intraperitoneal xenograft", "format": "in vivo, NOD-SCID mice", "experimental": "(§1) All animal studies were performed in accordance with the Institutional Animal Care and Use Committee at the University of Alabama Birmingham. Female SCID mice (Key resources table) at 5-7 weeks of age were housed under pathogen-free conditions at the Animal Research Facility at UAB. 1.5×10^6 GFP-luciferase SK-OV3 cells or 3×10^6 GFP-luciferase expressing PA1 cells were intraperitoneally injected. Mice were monitored daily, with girth and weight measurement taken twice a week. Tumor progression was tracked weekly using the IVIS Lumina III In vivo Imaging System (Caliper Life Sciences, MA) at UAB's Small Animal Imaging Facility. rhBMP9 was administered at the time of tumor cell injection followed by daily intraperitoneal (i.p.) injections of 1 mg/mL in 4 mM HCl+PBS+DI water (Vehicle), to achieve a final 5 mg/kg dose. For metastasis and tumor growth analysis, mice were euthanized between 21-50 days depending on the cell line. At necropsy, ascites, if present, were collected and volumes measured when possible, tumor weights in the omentum and other organs were recorded and collected when possible. For survival studies, mice that reached end-point criteria, including continued weight loss, respiratory trouble and permanent recumbency were euthanized. For microscopic analysis of tissues, formalin-fixed tissues were processed, paraffin-embedded, and sectioned at 5 μm thickness and H&E stained at UAB's histology core.\n(§2) IHC was performed using the BioCare Mach4 Universal Detection Kit. Specifically, anti-SOX2 was diluted in Da Vinci Green Diluent and incubated overnight at 4° C. in a humidified chamber. HRP was detected with 3,30-diaminobenzidine (DAB) substrate for 4 minutes. TUNEL staining was performed according to the manufacturer's instruction. Slides were examined and images captured with EVOS M7000 microscope. Cell profiler (Stirling et al., 2021) and Image J Fiji software were used for image quantification."}, "[3]": {"test_system": "SOX2", "assay": "SOX2 levels in xenograft tumors (IHC, qRT-PCR)", "format": "in vivo", "settings": "IHC and qRT-PCR, vs vehicle control-treated mice", "experimental": "as §2"}, "[4]": {"assay": "ELISA of BMP9 in plasma from mice", "format": "in vivo", "settings": "PA1-luc-GFP mice, daily i.p. administration"}, "[5]": {"assay": "Overall toxicity of daily i.p. BMP9 (body weight, kidney and liver function tests)", "format": "in vivo", "settings": "up to 3 weeks", "experimental": "as §1, with “For microscopic analysis of tissues, formalin-fixed tissues were processed, paraffin-embedded, and sectioned at 5 μm thickness and H&E stained at UAB's histology core.” left out"}, "[6]": {"test_system": "OC cell lines (PA1, OVCA420, OVCAR3, SKOV3, OVCA433)", "assay": "Live/Dead analysis under anchorage independence (anoikis), panel of OC cell lines", "format": "cell-based, human", "settings": "10 nM for 24 hours after 48 hours anchorage independence"}, "[7]": {"test_system": "PA1-luc-GFP cells", "assay": "PA1-luc-GFP intraperitoneal xenograft", "format": "in vivo, NOD-SCID mice", "experimental": "as §1, §2"}, "[8]": {"test_system": "1-kb SOX2 promoter reporter", "assay": "pGL3-SOX2 promoter-reporter luciferase assay in HEK293 cells", "format": "cell-based, human", "settings": "10 nM, 24 hours, serum-free", "experimental": "HEK293 cells were transfected with the pGL3-SOX2 promoter-luciferase reporter plasmid construct and SV40-renilla for 24h. […] According to the manufacturer's instruction, cells were collected and lysed in […] passive lysis buffer. To measure luciferase activity, […] of lysate was added to […] of dual Luciferase Assay Reagent, and luminescence was quantitated using a luminometer (Biotek)."}, "[9]": {"test_system": "HEYT30 cells", "assay": "Cell survival under anchorage independence, HEYT30", "format": "cell-based, human", "experimental": "(§3) For Live/Dead analysis under anchorage independence, 1,000 cells were seeded in 96-well hydrogel-coated ultra-low attachment (ULA) plates (Corning #4515) for times indicated. Growth factor treatment was done under low serum 2.5% FBS condition (Cells were plated in 10% FBS to allow spheroid formation before beginning treatment). Cells were then stained with 2 μM Calcein-AM and 4 μM Ethidium-homodimer for 30 min before imaging. z-stacked images were obtained using the Zeiss LSM700 Confocal microscope (Microscopy and Flow Cytometry Core, University of South Carolina) and NIKON A1 Confocal microscope (UAB High Resolution Imaging Facility). Fluorescent quantification was performed using ImageJ Fiji software to calculate the Corrected Total Cell Fluorescent (CTCF)=Integrated Density−(Area of selected cell×Mean fluorescence of background readings) per spheroid."}, "[10]": {"test_system": "A2780ip2 cells", "assay": "Cell survival under anchorage independence, A2780ip2", "format": "cell-based, human", "settings": "dose and time course", "experimental": "as §3"}, "[11]": {"test_system": "A2780CP cells", "assay": "Cell survival under anchorage independence, A2780CP", "format": "cell-based, human", "settings": "dose and time course", "experimental": "as §3"}, "[12]": {"test_system": "OCT4 or NANOG", "assay": "qRT-PCR of OCT4 and NANOG under 3D condition", "format": "cell-based, human", "settings": "PA1 cells", "experimental": "(§4) Lysate and RNA preparation: 100,000-300,000 cells were seeded in a poly-HEMA coated 6-well plate for indicated times in full serum unless indicated otherwise. Cells were collected by centrifugation and lysed with trizol for RNA extraction or direct 2× lysis buffer for protein lysates."}, "[13]": {"test_system": "PA1 cells", "assay": "Microarray transcription profile under anchorage independence", "format": "cell-based, human", "settings": "24 h, 2-fold change criterion", "experimental": "as §4\nTotal cellular RNA was extracted using Trizol reagent according to the manufacturer's protocol. RNA quality was determined using an Agilent 2100 Bioanalyzer and an RNA 6000 Nano kit (Agilent, Cat. No. 5067-1511) with RNA integrity numbers (RIN) ranging from 9.8 to 10. Microarray analyses were performed on the GeneChip™ Human Gene 2.0 ST ArrayS (Thermo Fisher Scientific, Cat. No. 902112) by the functional genomic core at University of South Carolina. Data were imported into the Affymetrix GeneChip Expression Console 1.4.1.46 and processed at the gene-level using the Robust Multichip Analysis (RMA) algorithm to generate CHP files. Experimental-group specific transcriptional responses were determined using unpaired one-way between-subject analysis of variance (ANOVA). Differentially expressed genes with p-values smaller than 0.05 and fold change higher than 2.0 and lower than −2.0 were used for further bioinformatics analysis."}, "[14]": {"test_system": "HEY parental cells", "assay": "Cell survival under anchorage independence, HEY parental", "format": "cell-based, human", "settings": "1, 5, 10 nM for 24, 48, and 72 hours", "experimental": "as §3"}},
  "data": [
    {"substance": "BMP9: recombinant human bone morphogenetic protein 9 (BMP9/GDF2), TGF-β family ligand", "values": [
      {"measurement": "cell growth", "setting": "[1]", "result": "did not alter"},
      {"measurement": "mice with detectable ascites", "setting": "[2]; 5 mg/kg i.p. daily", "result": "none"},
      {"measurement": "intraperitoneal tumor growth by BLI in the abdomen", "setting": "[2]; 5 mg/kg i.p. daily, day 16, vs vehicle", "result": "significantly lower"},
      {"measurement": "infiltrated tumor cells in omental tumors (histology)", "setting": "[2]; vs vehicle", "result": "significantly fewer"},
      {"measurement": "increase in TUNEL-positive cells in tumors", "setting": "[2]; vs vehicle-treated mice", "result": 143},
      {"measurement": "SOX2 levels in xenograft tumors", "setting": "[3]", "result": "overall reduction"},
      {"measurement": "BMP9 in plasma (ELISA)", "setting": "[4]", "result": "elevated"},
      {"measurement": "overall toxicity (body weight, kidney and liver function tests)", "setting": "[5]", "result": "no notable toxicity"},
      {"measurement": "percentage of dead cells", "setting": "[6]", "result": "increase"},
      {"measurement": "omental tumor burden", "setting": "[7]; 5 mg/kg i.p. daily, 7-week study, vs vehicle", "result": "significantly lower"},
      {"measurement": "overall i.p. tumor burden over time by bioluminescence imaging", "setting": "[7]; 5 mg/kg i.p. daily, vs vehicle", "result": "significant reduction"},
      {"measurement": "infiltrated tumor cells in omental tumors (histology)", "setting": "[7]; vs vehicle", "result": "significantly fewer"},
      {"measurement": "increase in TUNEL-positive cells in tumors", "setting": "[7]; vs vehicle-treated mice", "result": "a factor of two increase"},
      {"measurement": "luciferase activity of SOX2 promoter reporter", "setting": "[8]", "result": "significantly reduce"},
      {"measurement": "reduction in percentage live cells", "setting": "[9]; 10 nM", "result": 63, "unit": "%"},
      {"measurement": "reduction in percentage live cells", "setting": "[9]; 1 and 5 nM", "result": "about 35%"},
      {"measurement": "decrease in percentage live cells", "setting": "[10]", "result": 30, "unit": "%"},
      {"measurement": "decrease in percentage live cells", "setting": "[11]", "result": "25-55%"},
      {"measurement": "effect on OCT4 or NANOG", "setting": "[12]", "result": "did not have any significant effect"},
      {"measurement": "downregulated genes", "setting": "[13]", "result": 210},
      {"measurement": "upregulated genes", "setting": "[13]", "result": 333},
      {"measurement": "differentially expressed genes", "setting": "[13]; p<0.05", "result": 543},
      {"measurement": "decrease in percentage live cells", "setting": "[14]", "result": "50-65%"}
    ]}
  ]
}
